Data as given in patent US6348317B1, “Fluorescent and DNA cleavage properties of peptide/dye conjugates” (The Arizona Board of Regents, priority 1999, dated 2002).

Experiments:
[1] = target: GRE2 dsDNA (native GRE target sequence); test: Thiazole orange total fluorescence titration with unlabeled DNA; settings: TO fluorescence ex 510 nm, em 535 nm; read-out: dissociation constant, two-state binding model
Method: (§1) Fluorescence Measurements. Steady state fluorescence anisotropy measurements were carried out in 20 mM Tris (pH 7.9), 30 mM NaCl, 20 mM KCl, 1 mM MgCl2, and 5% glycerol. […] DNA samples used were either the non-labeled sequences shown in FIG. 2 or a fluorescein labeled duplex with a sequence matching GRE2 (FIG. 2).
(§2) For non-labeled DNA titrations (measuring the fluorescence from thiazole orange), the excitation wavelength was 510 nm and the emission was recorded at 535 nm with a 1.0 nm slit width. Glass cuvettes were used with a 0.3 cm path length. Titrations were performed using a constant concentration of unconjugated thiazole orange (TO) or TO-ZF and titrated with DNA as indicated.
(§3) Total fluorescence data were collected in parallel to the anisotropy measurements and were calculated from raw data as the fluorescence intensity in the vertical plane plus two times the fluorescence intensity of the horizontal plane, (TF=Ivv+2Ivh). These values were used to determine the percent of the maximum fluorescence for each point along the titration and fit to equation 2. [formula]
(§4) In equation 2, f corresponds to the fraction of TO-ZF conjugate bound at a given concentration of DNA. The concentration given as [TO(ZF)]T corresponds to either the unconjugated thiazole orange or the TOZF conjugate as indicated and [GRE]T is the total concentration of GRE binding sites. The parameter of the fit was the dissociation constant (Kd).
(§5) Titrations of the TO fluorescence upon binding of TO-ZF to unlabeled DNA were measured for the dsDNA sequences shown in FIG. 2. TO fluorescence was excited at 510 nm and collected at 535 nm. The GRE1 DNA sequence contains the same binding site as does the GRE2 DNA sequence used above, however, the GRE3 sequence contains a single mutation of the guanine in the native GRE target sequence (5′-TGTTCT-3′) to an adenine. The GRE2 and GRE3 sequences were generated for use in the photocleavage measurements described below. Finally, the GRE4 and ERE recognition sequences are from the non-specific GRE halfsite and the estrogen response element (ERE), respectively. M. A. L. Eriksson, J. Molec. Biol. 253:453-472 (1995). These are used in conjunction with the other sequences to determine the sensitivity of this probe. The DNA is not fluorescently labeled in these measurements. Therefore, the fluorescence is exclusively from thiazole orange molecules intercalated into dsDNA.
(§6) Fitting the binding curves to a two-state binding model (see Materials and Methods) results in a dissociation constant of 25 nM for GRE1 and GRE2, which contain the native GRE. Titrations of the modified GRE sequences and the ERE sequence yielded binding constants of 57 nM, 220 nM and 810 nM for the TO-ZF conjugate bound to GRE3, GRE4, and ERE, respectively.

[2] = target: GRE3 dsDNA (guanine of GRE changed to adenine); test: as above; settings: TO fluorescence ex 510 nm, em 535 nm; read-out: binding constant (dissociation constant)
Method: as §1, §2, §3, §4, §5, §6

[3] = target: GRE1 dsDNA (native GRE target sequence); test: as above; settings: TO fluorescence ex 510 nm, em 535 nm; read-out: dissociation constant, two-state binding model
Method: as §1, §2, §3, §4, §5, §6

[4] = target: GRE4 dsDNA (non-specific GRE halfsite); test: as above; settings: TO fluorescence ex 510 nm, em 535 nm; read-out: binding constant (dissociation constant)
Method: as §1, §2, §3, §4, §5, §6

[5] = target: ERE dsDNA (estrogen response element); test: as above; settings: TO fluorescence ex 510 nm, em 535 nm; read-out: binding constant (dissociation constant)
Method: as §1, §2, §3, §4, §5, §6

[6] = test system: GRE1 dsDNA; test: Photocleavage at 514 nm, PAGE analysis; format: biochemical
Method: The purified DNA strands shown in FIG. 2 were 5′^-32P-end-labeled using T4 polynucleotide kinase and purified as described above. Oxygen removal was performed by bubbling argon through the samples. Irradiations were performed on […] samples in a 1.0 mL glass cuvette fit with a septum using an argon-ion laser at 514 nm with a power of 300 mW/cm^2. After irradiation, samples were divided in half and one portion treated with piperidine, the other immediately frozen. Piperidine treatment consisted of adding an equal volume of freshly prepared 20% piperidine in water to the sample followed by heating at 90° C. for 30 minutes. Both the treated and untreated fractions were dried under vacuum. To each dried sample was added […] of 80% formamide in water. The products of the photocleavage experiments were analyzed on a 15% polyacrylamide (19:1) vertical sequencing gel with dimensions 21 cm×40 cm×0.4 mm. […] Gels were dried and exposed to a phosphorimaging screen for 4 hours and analyzed on a Molecular Dynamics Storm-840 gel scanner in phosphorimaging mode.
Photocleavage of TO-ZF conjugate. […] After irradiation of TO-ZF bound to dsDNA in Tris buffer solution at 514 nm (514 nm is in the main band of the absorbance spectrum of intercalated thiazole orange as shown in FIG. 3), the photo-products were denatured and separated using denaturing polyacrylamide gel electrophoresis (PAGE). […]

Kd [1]: 0.025 µM
Kd [2]: 0.057 µM
Kd [3]: 0.025 µM
Kd [4]: 0.22 µM
Kd [5]: 0.81 µM
Substance: TO-ZF: 29 amino acid single zinc finger from residues 438-465 of glucocorticoid receptor, thiazole orange coupled to a lysine ε-amine
site of photocleavage ([6]; 514 nm irradiation, piperidine treatment): piperidine dependent cleavage to occur predominantly at the guanine within the GRE
total chemical yield of the piperidine dependent reactions ([6]; samples reacted in the presence of oxygen): 2%
